Laboratory results from ChEMBL document CHEMBL2331130, “Synthesis and antibacterial activity of 9-oxime ether non-ketolides, and novel binding mode of alkylides with bacterial rRNA” (2013).
Converted amounts (≈) assume the structure as drawn.

Tests used:
Format in all cases: functional
Streptococcus pneumoniae [1] = test: Antibacterial activity against penicillin-susceptible Streptococcus pneumoniae PU09 harboring mef gene by broth microdilution method
Staphylococcus aureus [2] = test: Antibacterial activity against erythromycin-susceptible Staphylococcus aureus ATCC 29213 by broth microdilution method
Streptococcus pyogenes [3] = test: Antibacterial activity against erythromycin-susceptible Streptococcus pyogenes A3 by broth microdilution method
Streptococcus pneumoniae [4] = test: Antibacterial activity against MLS-resistant (constitutive), penicillin-resistant Streptococcus pneumoniae PU11 by broth microdilution method
[5] = test system: Staphylococcus epidermidis; test: Antibacterial activity against methicillin-resistant, coagulase-negative, MLS-resistant (inducible) Staphylococcus epidermidis E3 by broth microdilution method
Streptococcus pneumoniae [6] = test: Antibacterial activity against erythromycin-susceptible Streptococcus pneumoniae ATCC 49619 by broth microdilution method
Staphylococcus aureus [7] = test: Antibacterial activity against methicillin-resistant, MLS-resistant (constitutive) Staphylococcus aureus PU 20 by broth microdilution method
Staphylococcus aureus [8] = test: Antibacterial activity against methicillin-susceptible, MLS-resistant (inducible) Staphylococcus aureus PU 64 by broth microdilution method
[9] = test system: Staphylococcus epidermidis; test: Antibacterial activity against methicillin-resistant, MLS-resistant (constitutive) Staphylococcus epidermidis E2 by broth microdilution method
Staphylococcus aureus [10] = test: Antibacterial activity against methicillin-resistant, MLS-resistant (inducible) Staphylococcus aureus PU 32 by broth microdilution method
[11] = test system: Streptococcus dysgalactiae; test: Antibacterial activity against erythromycin-resistant Streptococcus dysgalactiae A1 by broth microdilution method
Streptococcus pneumoniae [12] = test: Antibacterial activity against MLS-resistant (constitutive), penicillin-susceptible Streptococcus pneumoniae PU27 by broth microdilution method
[13] = test system: Staphylococcus epidermidis; test: Antibacterial activity against methicillin-susceptible, MLS-resistant (inducible) Staphylococcus epidermidis E1 by broth microdilution method
Staphylococcus aureus [14] = test: Antibacterial activity against methicillin-resistant, […], MLS-resistant (constitutive) Staphylococcus aureus PU 19 by broth microdilution method
Streptococcus pyogenes [15] = test: Antibacterial activity against MLS-resistant (constitutive) Streptococcus pyogenes A2 by broth microdilution method

Row | Compound | MIC (Streptococcus pneumoniae [1]) | MIC (Staphylococcus aureus [2]) | MIC (Streptococcus pyogenes [3]) | MIC (Streptococcus pneumoniae [4]) | MIC [5] | MIC (Streptococcus pneumoniae [6]) | MIC (Staphylococcus aureus [7]) | MIC (Staphylococcus aureus [8]) | MIC [9] | MIC (Staphylococcus aureus [10]) | MIC [11] | MIC (Streptococcus pneumoniae [12]) | MIC [13] | MIC (Staphylococcus aureus [14]) | MIC (Streptococcus pyogenes [15])
1 | CC[C@H]1OC(=O)[C@H](C)[C@@H](OC(=O)Cc2cccnc2)[C@H](C)[C@@H](O[C@@H]2O[C@H](C)C[C@H](N(C)C)[C@H]2O)[C@](C)(OC)C[C@@H](C)/C(=N\OC/C=C/c2cnc3ccccc3c2)[C@H](C)[C@H]2OC(=O)O[C@@]21C | 8 µg/mL (≈ 8.72 µM) | 64 µg/mL (≈ 69.8 µM) | 1 µg/mL (≈ 1.09 µM) | 128 µg/mL (≈ 140 µM) | > 256 µg/mL | 2 µg/mL (≈ 2.18 µM) | > 256 µg/mL | 32 µg/mL (≈ 34.9 µM) | > 256 µg/mL | 64 µg/mL (≈ 69.8 µM) | 16 µg/mL (≈ 17.4 µM) | 64 µg/mL (≈ 69.8 µM) | > 256 µg/mL | > 256 µg/mL | 128 µg/mL (≈ 140 µM)
2 | CC[C@H]1OC(=O)[C@H](C)[C@@H](OC(=O)Cc2ccccn2)[C@H](C)[C@@H](O[C@@H]2O[C@H](C)C[C@H](N(C)C)[C@H]2O)[C@](C)(OC)C[C@@H](C)/C(=N\OC/C=C/c2cnc3ccccc3c2)[C@H](C)[C@H]2OC(=O)O[C@@]21C | 16 µg/mL (≈ 17.4 µM) | 32 µg/mL (≈ 34.9 µM) | 0.5 µg/mL (≈ 0.545 µM) | 64 µg/mL (≈ 69.8 µM) | 32 µg/mL (≈ 34.9 µM) | 1 µg/mL (≈ 1.09 µM) | > 256 µg/mL | 32 µg/mL (≈ 34.9 µM) | > 256 µg/mL | 64 µg/mL (≈ 69.8 µM) | 8 µg/mL (≈ 8.72 µM) | 32 µg/mL (≈ 34.9 µM) | 32 µg/mL (≈ 34.9 µM) | > 256 µg/mL | 32 µg/mL (≈ 34.9 µM)
3 | CC[C@H]1OC(=O)[C@H](C)[C@@H](OC(=O)Cc2cccnc2)[C@H](C)[C@@H](O[C@@H]2O[C@H](C)C[C@H](N(C)C)[C@H]2O)[C@](C)(OC)C[C@@H](C)/C(=N\OCC#Cc2cncc3ccccc23)[C@H](C)[C@H]2OC(=O)O[C@@]21C | 8 µg/mL (≈ 8.74 µM) | 32 µg/mL (≈ 35 µM) | 1 µg/mL (≈ 1.09 µM) | 64 µg/mL (≈ 69.9 µM) | > 256 µg/mL | 1 µg/mL (≈ 1.09 µM) | > 256 µg/mL | 32 µg/mL (≈ 35 µM) | > 256 µg/mL | 64 µg/mL (≈ 69.9 µM) | 8 µg/mL (≈ 8.74 µM) | 64 µg/mL (≈ 69.9 µM) | > 256 µg/mL | > 256 µg/mL | 64 µg/mL (≈ 69.9 µM)
4 | CC[C@H]1OC(=O)[C@H](C)[C@@H](OC(=O)Cc2ccccn2)[C@H](C)[C@@H](O[C@@H]2O[C@H](C)C[C@H](N(C)C)[C@H]2O)[C@](C)(OC)C[C@@H](C)/C(=N\OCC#Cc2cncc3ccccc23)[C@H](C)[C@H]2OC(=O)O[C@@]21C | 8 µg/mL (≈ 8.74 µM) | 32 µg/mL (≈ 35 µM) | 8 µg/mL (≈ 8.74 µM) | 32 µg/mL (≈ 35 µM) | > 256 µg/mL | 1 µg/mL (≈ 1.09 µM) | > 256 µg/mL | 16 µg/mL (≈ 17.5 µM) | > 256 µg/mL | 32 µg/mL (≈ 35 µM) | 8 µg/mL (≈ 8.74 µM) | 32 µg/mL (≈ 35 µM) | > 256 µg/mL | > 256 µg/mL | 32 µg/mL (≈ 35 µM)
5 | CC[C@H]1OC(=O)[C@H](C)[C@@H](O[C@H]2C[C@@](C)(OC)[C@@H](O)[C@H](C)O2)[C@H](C)[C@@H](O[C@@H]2O[C@H](C)C[C@H](N(C)C)[C@H]2O)[C@](C)(O)C[C@@H](C)CN(C)[C@H](C)[C@@H](O)[C@]1(C)O [AZITHROMYCIN] | 64 µg/mL (≈ 85.4 µM) | 2 µg/mL (≈ 2.67 µM) | ≤ 0.008 µg/mL | > 256 µg/mL | > 256 µg/mL | 0.25 µg/mL (≈ 0.334 µM) |  |  | > 256 µg/mL | > 256 µg/mL | 64 µg/mL (≈ 85.4 µM) |  | > 256 µg/mL | > 256 µg/mL | > 256 µg/mL
6 | CC[C@H]1OC(=O)[C@H](C)[C@@H](O[C@H]2C[C@@](C)(OC)[C@@H](O)[C@H](C)O2)[C@H](C)[C@@H](O[C@@H]2O[C@H](C)C[C@H](N(C)C)[C@H]2O)[C@](C)(OC)C[C@@H](C)C(=O)[C@H](C)[C@@H](O)[C@]1(C)O [CLARITHROMYCIN] | > 256 µg/mL | 0.5 µg/mL (≈ 0.668 µM) | ≤ 0.008 µg/mL | > 256 µg/mL | > 256 µg/mL | 0.032 µg/mL (≈ 0.0428 µM) | > 256 µg/mL | > 256 µg/mL | > 256 µg/mL | > 256 µg/mL | 16 µg/mL (≈ 21.4 µM) | > 256 µg/mL | > 256 µg/mL | > 256 µg/mL | > 256 µg/mL
7 | CC[C@H]1OC(=O)[C@H](C)C(=O)[C@H](C)[C@@H](O[C@@H]2O[C@H](C)C[C@H](N(C)C)[C@H]2O)[C@](C)(OC)C[C@@H](C)C(=O)[C@H](C)[C@H]2N(CCCCn3cnc(-c4cccnc4)c3)C(=O)O[C@]12C [TELITHROMYCIN] | 0.125 µg/mL (≈ 0.154 µM) | 0.25 µg/mL (≈ 0.308 µM) | ≤ 0.008 µg/mL | 4 µg/mL (≈ 4.93 µM) | 8 µg/mL (≈ 9.85 µM) | ≤ 0.008 µg/mL | > 256 µg/mL | 0.5 µg/mL (≈ 0.616 µM) | > 256 µg/mL | 1 µg/mL (≈ 1.23 µM) | 2 µg/mL (≈ 2.46 µM) | 0.125 µg/mL (≈ 0.154 µM) | 1 µg/mL (≈ 1.23 µM) | > 256 µg/mL | 128 µg/mL (≈ 158 µM)
